Experimental data from patent publication US11235057B2, “Methods for providing polymeric synthetic nanocarriers for generating antigen-specific tolerance immune responses” (Selecta Biosciences, Inc., priority 2011, dated 2022).

System: Treg cells (CD4+CD25highFoxP3+)
Assay: Antigen-specific tolerogenic dendritic cells (tDC) activity on Treg cell development
Assay type: cell-based, OTII mice
Conditions: FIG. 3; tDC cultured with OTII T cells 4-5 days, flow cytometry
Procedure: The assay included the use of OTII mice which have a transgenic T cell receptor specific for an immune-dominant ovalbumin peptide (323-339). In order to create antigen-specific tDCs, CD11c^+ splenocytes were isolated, and the ovalbumin peptide (323-339) added in vitro at 1 μg/ml or no antigen. Soluble or nanocarrier-encapsulated rapamycin was then added to the DCs for 2 hours which were then washed extensively to remove free rapamycin from the culture. Purified responder CD4^+CD25^− cells were isolated from OTII mice and added to tDC at a 10:1 T to DC ratio. The mixture of tDC and OTII T cells were then cultured for 4-5 days, and the frequency of Treg cells (CD4^+CD25highFoxP3^+) were analyzed by flow cytometry as shown in FIG. 1. Regions were selected based on isotype controls.
Free rapamycin or synthetic nanocarriers containing rapamycin were combined with free soluble Ovalbumin (323-339) to evaluate induction of tDC (FIG. 2). […] Briefly, antigen specific tDC were obtained by isolating dendritic cells (CD11c^+ splenocytes) and culturing them in combination with the Ovalbumin (323-339) peptide plus soluble or nanocarrier encapsulated rapamycin (Synthetic Nanocarrier #s 13, 14, 15 and 16) for 2 hours followed by extensive washing. […] The mixture of tDC and OTII T cells were then cultured for 4-5 days, and the frequency of Treg cells (CD4^+CD25highFoxP3^+) were analyzed by flow cytometry.

## CO[C@H]1C[C@@H]2CC[C@@H](C)[C@@](O)(O2)C(=O)C(=O)N2CCCC[C@H]2C(=O)O[C@H]([C@H](C)C[C@@H]2CC[C@@H](O)[C@H](OC)C2)CC(=O)[C@H](C)/C=C(\C)[C@@H](O)[C@@H](OC)C(=O)[C@H](C)C[C@H](C)/C=C/C=C/C=C/1C [rapamycin]
  induction of FoxP3 expressing cells: 2.7%
